“And” between values parts separate entries of the source, which are not always exact repeats. Equal values may be shown once.
How the values were obtained:
[1] = test system: Colonic Threshold in Normal Rats; test: Colonic distension pain threshold in normal rats; format: in vivo, Male Sprague-Dawley rats; conditions: rat, in vivo
Experimental: (§1) Male Sprague-Dawley rats weighing 340 to 400 g were used in the study. The animals were housed three per cage in a regulated environment (20 ± 1°C, 50 ± 5% humidity, with light 8:00 AM to 8:00 PM). Under anethesia (ketamine 80 mg/kg i.p.; acepromazin 12 mg/kg i.p.), TNBS (50 mg/kg), or saline (1.5 mL/kg) was injected into the proximal colon (1 cm from the cecum). After the surgery, animals were individually housed in the regulated environment.
(§2) A balloon catheter (5-6 cm length) was inserted through the anus into the colon and kept in position (tip of balloon 5 cm from the anus) by taping the catheter to the base of the tail. The balloon was progressively inflated by step of 5 mm Hg, from 0 to 75 mm Hg, each step of inflation lasting 30 seconds. Each cycle of colonic distension was controlled by a standard barostat. The threshold corresponds to the pressure which produced the first abdominal contraction, at which time the cycle of distension was discontinued. To determine the colonic threshold, four cycles of distension were performed on the same animal.
In a first series of experiments, a group of eight rats treated with saline were subjected to a colonic distension session.
(§3) All test compounds were dissolved in saline except TNBS. TNBS was dissolved in EtOH 30% (w/v). Subcutaneous injection of vehicle was given in a volume of […].
(§4) Statistical significance between each group was determined using a one-way ANOVA followed by Student's unpaired t-test. Differences were considered statistically significant at p <0.05.

[2] = test system: TNBS-Induced Chronic Colonic Allodynia; test: TNBS-induced chronic colonic allodynia in rats (colonic distension threshold); format: in vivo, Male Sprague-Dawley rats; conditions: rat, in vivo
Experimental: GABA analogs were evaluated in rats suffering from chronic visceral allodynia induced by trinitrobenzene sulfonic acid (TNBS).
In humans, digestive disorders are often associated with visceral pain. In these pathologies, the visceral pain threshold is decreased, indicating a visceral hypersensitivity. Consequently, the following study was designed to evaluate the effect of injection of TNBS into the colon on visceral pain threshold in an experimental model of colonic distension.
as §1, §2
In a second series, a group of eight rats treated with TNBS were subjected to a colonic distension session.
In a third series, a group of eight rats treated with TNBS received a subcutaneous (sc) injection of gabapentin or CI-1008 30 minutes prior to initiation of the colonic distension cycle.
as §3, §4
Pain threshold (pressure of distension inducing the first abdominal contraction) after distal colonic distension was determined at Day 7 in two groups of awake rats: control animals and TNBS-treated animals. […] Inflammatory parameters (colon weight, area of hyperemia and necrosis and colonic myeloperoxidase content) were measured in the proximal colon at Day 7 after TNBS treatment.
Gabapentin (100, 300, and 500 mg/kg sc) and CI-1008 (30, 60, 100, and 200 mg/kg sc) were administered 30 minutes before colonic distension and measurement of the inflammatory parameters.

CN1CC[C@]23c4c5ccc(O)c4O[C@H]2[C@@H](O)C=C[C@H]3[C@H]1C5 [Morphine]
colonic pain threshold in normal conditions (control animals), in words [1]: significantly increased | Colonic Threshold [2]: 34.22 mm Hg and 46.09 mm Hg and 64.84 mm Hg | TNBS-induced decrease in pain threshold after colonic distension (in words) [2]: completely suppressed
